Data on three molecules can be found in the NIST ThermoML archive (doi:10.1021/je301087w).

For data set [1] the following is noted: Crystal; DTA.
Data set [2] can be described thus: Molar enthalpy of transition or fusion. As to conditions: Crystal; DSC.

Molecules are shown by their SMILES. Numbers after ± are expanded uncertainties.

`C1COCCOCCOCCOCCOCCO1.O.O.O.O.O.O.O.O.O.O.O.O` [1,4,7,10,13,16-hexaoxacyclooctadecane dodecahydrate]: the Normal melting temperature in data set [1] was found to be 9.90 ± 0.53 °C. In addition, in data set [2], the “Molar enthalpy of transition or fusion” value is 4.66 ± 0.932 kcal/mol.

For `C1COCCOCCOCCOCCOCCO1.O.O.O.O.O.O.O.O` [1,4,7,10,13,16-hexaoxacyclooctadecane octahydrate], the Normal melting temperature in data set [1] is 17.10 ± 0.53 °C. Moreover, the “Molar enthalpy of transition or fusion” value in data set [2] was found to be 2.8 ± 0.574 kcal/mol.

With `C1COCCOCCOCCOCCOCCO1` [1,4,7,10,13,16-hexaoxacyclooctadecane], the Normal melting temperature in data set [1] is 39.10 ± 0.53 °C. Besides, the “Molar enthalpy of transition or fusion” value in data set [2] was determined as 8.48 ± 0.741 kcal/mol.
